Experimental data taken from US9849130B2 (KamTek, Inc., priority 2014, dated 2017).
≈ marks a conversion by molar mass, not a printed value. Where “and” joins values, the source holds several entries; their conditions need not be identical. Identical values can stand only once. Like-named read-outs stand apart in the source and are kept apart here.

How the values were obtained:
[1] = test system: Bacteroides Strains; assay: MIC by microdilution in Brucella broth against Bacteroides strains; type: cell-based, Bacteroides spp.
[2] = test system: Bifidobacterium strains; assay: MIC by microdilution in BHI broth against Bifidobacterium strains; type: cell-based, Bifidobacterium spp.; details: BHI broth, read-out: MIC
[3] = test system: C. perfringens MH310; assay: microbe, parasite or virus in culture; type: cell-based; details: Clostridium perfringens, MH310, C. perfringens MH310
[4] = test system: C. difficile VPI10463
[5] = test system: Lactobacillus strains; assay: MIC against Lactobacillus strains; type: cell-based, Lactobacillus spp.; details: broth microdilution, BHI with 0.02% Tween 80, pH 6.0, read-out: MIC
[6] = test system: C. difficile; assay: Minimum bactericidal concentration (MBC) against C. difficile; type: cell-based, Clostridium difficile; details: for MBC: Clostridioides difficile
[7] = test system: Fusobacterium; assay: MIC by microdilution in Brucella broth against Fusobacterium; type: cell-based, Fusobacterium spp.; details: Brucella broth, read-out: MIC
[8] = test system: CD strains; assay: In vitro activity of CFM + additional antimicrobial agent against CD (MIC alone/combination, FIC, ΣFIC); type: cell-based, Clostridium difficile; details: for MIC: Clostridioides difficile, read-out: MIC alone
[9] = Test 1, CD strain VPI 10463, CFM + VAN
[10] = Test 2, CD strain VPI 10463, CFM + VAN
[11] = Test 3, CD strain VPI 10463, CFM + MET
[12] = Test 4, CD strain VPI 10463, CFM + MET
[13] = Test 5, CD strain NR32889, CFM + VAN

## CC(C)N=c1cc2n(-c3ccc(Cl)cc3)c3ccccc3nc-2cc1Nc1ccc(Cl)cc1 [CFM, 3-(p-chloroanilino)-10-(p-chlorophenyl)-2,10-dihydro-2-iso-propyliminophenazine]
[1]; B. caccae HM728, read-out: MIC
  MIC: 1 µg/mL (≈ 2.11 µM)
[1]; B. eggerthii HM210, read-out: MIC
  MIC: 2 µg/mL (≈ 4.22 µM)
[1]; B. fragilis HM709, read-out: MIC
  MIC: 4 µg/mL (≈ 8.45 µM)
[1]; B. fragilis HM710, read-out: MIC
  MIC: 2 µg/mL (≈ 4.22 µM)
[1]; B. fragilis HM714, read-out: MIC
  MIC: 2 µg/mL (≈ 4.22 µM)
[1]; B. ovatus HM222, read-out: MIC
  MIC: 0.25 µg/mL (≈ 0.528 µM)
[1]; B. stercoris HM1036, read-out: MIC
  MIC: 0.5 µg/mL (≈ 1.06 µM)
[1]; Bacteroides, B. spp. HM18
  MIC: 4 µg/mL (≈ 8.45 µM)
[1]; Bacteroides, B. spp. HM19
  MIC: 1 µg/mL (≈ 2.11 µM)
[1]; Bacteroides, B. spp. HM23, read-out: MIC
  MIC: 2 µg/mL (≈ 4.22 µM)
[1]; Bacteroides, B. spp. HM27
  MIC: 1 µg/mL (≈ 2.11 µM)
[1]; Bacteroides, B. spp. HM58
  MIC: 1 µg/mL (≈ 2.11 µM)
[2]; Bifidobacterium adolescentis HM-633
  MIC: 1 µg/mL (≈ 2.11 µM)
[2]; Bifidobacterium breve HM-411
  MIC: 2 µg/mL (≈ 4.22 µM)
[2]; Bifidobacterium breve HM-412
  MIC: 2 µg/mL (≈ 4.22 µM)
[2]; Bifidobacterium breve HM-856
  MIC: 4 µg/mL (≈ 8.45 µM)
[2]; Bifidobacterium breve HM-1120
  MIC: > 32 µg/mL
[2]; Bifidobacterium longum HM-845
  MIC: 1 µg/mL (≈ 2.11 µM)
[2]; Bifidobacterium longum HM-846
  MIC: 2 µg/mL (≈ 4.22 µM)
[2]; Bifidobacterium longum HM-847
  MIC: 1 µg/mL (≈ 2.11 µM)
[2]; Bifidobacterium, Bifidobacterium sp. HM-30
  MIC: 0.5 µg/mL (≈ 1.06 µM)
[2]; Bifidobacterium, Bifidobacterium sp. HM-868
  MIC: 2 µg/mL (≈ 4.22 µM)
[3]; BB
  MIC: 0.5 µg/mL (≈ 1.06 µM)
[3]; BHI
  MIC: 1 µg/mL (≈ 2.11 µM)
[4]; Clostridioides difficile, VPI10463
  MIC: 0.125 µg/mL (≈ 0.264 µM)
[4]; Clostridioides difficile, VPI10463, Expt. 1, fecal extract (human feces 20% w/v in BHI), C. difficile VPI10463
  MIC: 0.5 µg/mL (≈ 1.06 µM)
[4]; Clostridioides difficile, VPI10463, Expt. 2, −fecal extract, C. difficile VPI10463
  MIC: 0.062 µg/mL (≈ 0.131 µM)
[4]; Expt. 2, +fecal extract (human feces 20% w/v in BHI), C. difficile VPI10463
  MIC: 0.125 µg/mL (≈ 0.264 µM)
[5]; Lactobacillus, pH 6, Lactobacillus jhonsonii HM-643
  MIC: > 32 µg/mL
[5]; Lactobacillus, pH 6, Lactobacillus sp. HM-228
  MIC: 1 µg/mL (≈ 2.11 µM)
[5]; Lactobacillus, pH 6, Lactobacillus sp. HM-478
  MIC: > 32 µg/mL
[5]; pH 6, Lactobacillus crispatus HM-637
  MIC: 4 µg/mL (≈ 8.45 µM)
[5]; pH 6, Lactobacillus gasseri HM-104
  MIC: > 32 µg/mL
[5]; pH 6, Lactobacillus iners HM-126
  MIC: 2 µg/mL (≈ 4.22 µM)
[5]; pH 6, Lactobacillus jensenii HM-105
  MIC: > 32 µg/mL
[5]; pH 6, Lactobacillus reuteri HM-102
  MIC: > 32 µg/mL
[5]; pH 6, Lactobacillus rhamnosus HM-106
  MIC: > 32 µg/mL
[5]; pH 6, Lactobacillus vaginalis HM-405
  MIC: 2 µg/mL (≈ 4.22 µM)
[6]
  MBC/MIC: 2 and 1
  MBC/MIC ratio range: 1-2
[6]; CD isolate BAA1805 (hyper-virulent strain BI/NAP1/027)
  MBC/MIC: 1
[6]; BAA1805
  MBC: 0.125 µg/mL (≈ 0.264 µM)
[6]; CD isolate NR13430, read-out: MBC
  MBC: 0.25 µg/mL (≈ 0.528 µM)
[6]; CD isolate NR13432, read-out: MBC
  MBC: 0.25 µg/mL (≈ 0.528 µM)
[6]; CD isolate NR13437, read-out: MBC
  MBC: 0.25 µg/mL (≈ 0.528 µM)
[6]; CD isolate NR32882, read-out: MBC
  MBC: 0.5 µg/mL (≈ 1.06 µM)
[6]; CD isolate NR32883, read-out: MBC
  MBC: 0.5 µg/mL (≈ 1.06 µM)
[6]; CD isolate NR332884, read-out: MBC
  MBC: 0.25 µg/mL (≈ 0.528 µM)
[6]; CD isolate VPI10463, read-out: MBC
  MBC: 0.25 µg/mL (≈ 0.528 µM)
[7]; F. nucleatum HM-75
  MIC: > 32 µg/mL
[7]; F. nucleatum HM-260
  MIC: > 32 µg/mL
[7]; F. nucleatum HM-992
  MIC: > 32 µg/mL
[7]; F. nucleatum HM-993
  MIC: 2 µg/mL (≈ 4.22 µM)
[7]; F. nucleatum HM-994
  MIC: 32 µg/mL (≈ 67.6 µM)
[7]; F. nucleatum HM-995
  MIC: > 32 µg/mL
[7]; F. nucleatum HM-996
  MIC: 32 µg/mL (≈ 67.6 µM)
[7]; F. nucleatum HM-997
  MIC: > 32 µg/mL
[7]; Fusobacterium, Fusobacterium sp. HM 42
  MIC: > 32 µg/mL
[7]; Fusobacterium, Fusobacterium sp. HM 57
  MIC: > 32 µg/mL
[7]; Fusobacterium, Fusobacterium sp. HM-556
  MIC: 16 µg/mL (≈ 33.8 µM)
[7]; Fusobacterium, Fusobacterium sp. HM-758
  MIC: > 32 µg/mL
[7]; Fusobacterium, Fusobacterium sp. HM-871
  MIC: 32 µg/mL (≈ 67.6 µM)
[7]; Fusobacterium, Fusobacterium sp. HM-874
  MIC: > 32 µg/mL
[7]; Fusobacterium, Fusobacterium sp. HM-875
  MIC: 32 µg/mL (≈ 67.6 µM)
[8]; BAA1805, Test 13, CD strain BAA1805 (BI/NAP1/027), CFM + VAN
  MIC: 0.25 µg/mL
[8]; BAA1805, Test 14, CD strain BAA1805 (BI/NAP1/027), CFM + MET
  MIC: 0.25 µg/mL
[8]; BAA1805, Test 15, CD strain BAA1805 (BI/NAP1/027), CFM + MET
  MIC: 0.25 µg/mL
[8]; BAA1805, Test 16, CD strain BAA1805 (BI/NAP1/027), CFM + VAN
  MIC: 0.25 µg/mL
[8]; BAA1805, Test 17, CD strain BAA1805 (BI/NAP1/027), CFM + MET
  MIC: 0.25 µg/mL
[8]; [9]
  MIC: 0.25 µg/mL
  FIC: 0.124
  MIC combination: 0.031 µg/mL
[8]; Test 9, CD strain NR32885, CFM + VAN
  MIC: 0.25 µg/mL
[8]; Test 11, CD strain NR32885, CFM + VAN
  MIC: 0.25 µg/mL
[8]; Test 12, CD strain NR32885, CFM + MET
  MIC: 0.25 µg/mL
[8]; Test 18, CD strain NR32888, CFM + VAN
  MIC: 0.25 µg/mL
[8]; Test 19, CD strain NR32888, CFM + MET
  MIC: 0.25 µg/mL
[8]; Test 20, CD strain NR32888, CFM + VAN
  MIC: 0.25 µg/mL
[8]; Test 21, CD strain NR32888, CFM + MET
  MIC: 0.25 µg/mL
[8]
  MIC: 0.125 µg/mL
[8]; Test 1, CD strain VPI 10463, sum for combination CFM + VAN
  ΣFIC: 0.374
[8]; [10]
  FIC: 0.0312
  MIC combination: 0.0039 µg/mL
[8]; Test 2, CD strain VPI 10463, sum for combination CFM + VAN
  ΣFIC: 0.281
[8]; [11]
  FIC: 0.5
  MIC alone: 0.125 µg/mL
  MIC combination: 0.062 µg/mL
[8]; Test 3, CD strain VPI 10463, sum for combination CFM + MET
  ΣFIC: 1
[8]; [12]
  FIC: 0.5
  MIC alone: 0.125 µg/mL
  MIC combination: 0.062 µg/mL
[8]; Test 4, CD strain VPI 10463, sum for combination CFM + MET
  ΣFIC: 1
[8]; [13]
  FIC: 1
  MIC alone: 0.125 µg/mL
  MIC combination: 0.125 µg/mL
